# Test results published in ChEMBL document CHEMBL1134946, “Synthesis and NK(1)/NK(2) binding activities of a series of diacyl-substituted 2-arylpiperazines” (Bioorg Med Chem Lett, 2002).
# Target: T1, Substance-K receptor (Mesocricetus auratus, UniProt P51144)
# T1 sequence (P51144 whole entry): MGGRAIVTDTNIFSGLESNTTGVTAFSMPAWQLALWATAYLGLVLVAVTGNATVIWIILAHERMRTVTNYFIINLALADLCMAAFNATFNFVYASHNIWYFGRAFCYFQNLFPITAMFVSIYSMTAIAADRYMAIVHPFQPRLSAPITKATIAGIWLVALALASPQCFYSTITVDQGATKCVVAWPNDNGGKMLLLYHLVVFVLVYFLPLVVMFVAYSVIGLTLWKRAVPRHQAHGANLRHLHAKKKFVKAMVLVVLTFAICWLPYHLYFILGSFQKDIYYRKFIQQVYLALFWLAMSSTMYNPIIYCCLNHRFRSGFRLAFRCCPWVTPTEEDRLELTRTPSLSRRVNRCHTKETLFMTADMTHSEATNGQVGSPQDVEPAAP
# Experiment: Inhibition of NKA-induced airway contraction of isolated hamster trachea (ht) was used as a measure of NK2-receptor antagonist activity.
# Type: functional, tissue-based
# Settings: read-out: pA2 (converted)
row,Compound,Kb [nM]
1,Cc1cc(C)cc(C(=O)N2CCN(C(=O)CNC3CCN(Cc4ccccc4)CC3)C(c3ccc(Cl)c(Cl)c3)C2)c1 (centres undefined),316

# Target: Substance-P receptor (Cavia porcellus, UniProt P30547)
# Sequence (P30547 whole entry): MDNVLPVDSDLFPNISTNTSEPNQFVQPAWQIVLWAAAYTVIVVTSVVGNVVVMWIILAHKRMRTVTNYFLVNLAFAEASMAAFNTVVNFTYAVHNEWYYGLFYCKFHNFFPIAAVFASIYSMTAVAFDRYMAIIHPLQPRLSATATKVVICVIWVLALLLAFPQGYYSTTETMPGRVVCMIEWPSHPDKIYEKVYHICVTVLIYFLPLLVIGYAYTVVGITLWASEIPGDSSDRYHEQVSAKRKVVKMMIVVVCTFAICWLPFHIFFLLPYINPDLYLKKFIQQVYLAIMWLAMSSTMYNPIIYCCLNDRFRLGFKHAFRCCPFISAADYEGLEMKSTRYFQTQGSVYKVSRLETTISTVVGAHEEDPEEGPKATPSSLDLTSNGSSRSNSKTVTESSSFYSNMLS
# Experiment: Inhibition of the SP-induced NK1-mediated enhancement of the EFS-induced sympathetic neurogenic contractions of gpvd, used as a measure of antagonist activity.
# Type: functional
# Settings: read-out: pA2 (converted)
row,Compound,Kb [nM]
1,Cc1cc(C)cc(C(=O)N2CCN(C(=O)CNC3CCN(Cc4ccccc4)CC3)[C@@H](c3ccc(Cl)c(Cl)c3)C2)c1,6.31
2,Cc1cc(C)cc(C(=O)N2CCN(C(=O)CNC3CCN(Cc4ccccc4)CC3)C(c3ccc(Cl)c(Cl)c3)C2)c1 (centres undefined),316
3,O=C(c1cc(C(F)(F)F)cc(C(F)(F)F)c1)N1CCN(C(=O)CNC2CCN(Cc3ccccc3)CC2)C(c2ccc(Cl)c(Cl)c2)C1 (centres undefined),79.4

# Target: Substance-P receptor (Homo sapiens, UniProt P25103)
# Sequence (P25103 whole entry): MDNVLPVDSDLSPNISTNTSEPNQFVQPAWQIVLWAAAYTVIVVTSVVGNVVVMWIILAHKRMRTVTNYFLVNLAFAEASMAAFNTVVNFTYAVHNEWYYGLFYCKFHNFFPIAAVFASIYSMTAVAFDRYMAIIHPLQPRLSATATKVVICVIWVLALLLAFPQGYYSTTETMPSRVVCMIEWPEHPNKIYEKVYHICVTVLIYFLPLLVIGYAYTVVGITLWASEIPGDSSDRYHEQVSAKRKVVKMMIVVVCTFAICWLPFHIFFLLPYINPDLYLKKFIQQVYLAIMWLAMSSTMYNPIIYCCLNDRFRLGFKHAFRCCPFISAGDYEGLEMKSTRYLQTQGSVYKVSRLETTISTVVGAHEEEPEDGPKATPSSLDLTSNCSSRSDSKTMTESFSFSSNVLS
# Experiment: Binding affinity in membrane preparations containing recombinant human Tachykinin receptor 1 in CHO cells by using [3H]-Sar SP as the radioligand.
# Type: cell membranes
# Settings: not given
row,Compound,Ki [nM]
1,O=C(CN1CCN(Cc2ccccc2)CC1)N1CCN(Cc2cc(C(F)(F)F)cc(C(F)(F)F)c2)CC1c1ccc(Cl)c(Cl)c1 (centres undefined),28
2,O=C(CNC1CCN(Cc2ccccc2)CC1)N1CCN(Cc2cc(C(F)(F)F)cc(C(F)(F)F)c2)CC1c1ccc(Cl)c(Cl)c1 (centres undefined),30
3,O=C(CN1CCC(Cc2ccccc2)CC1)N1CCN(Cc2cc(C(F)(F)F)cc(C(F)(F)F)c2)CC1c1ccccc1 (centres undefined),37
4,CC(=O)NC1(c2ccccc2)CCN(CC(=O)N2CCN(Cc3cc(C(F)(F)F)cc(C(F)(F)F)c3)CC2c2ccccc2)CC1 (centres undefined),48
5,COc1cc(CC(=O)N2CCN(C(=O)CNC3CCN(Cc4ccccc4)CC3)C(c3ccc(Cl)c(Cl)c3)C2)cc(OC)c1OC (centres undefined),> 1000
6,O=C(CN1CCN(Cc2ccccc2)CC1)N1CCN(Cc2cc(C(F)(F)F)cc(C(F)(F)F)c2)CC1c1ccccc1 (centres undefined),48
7,O=C(CN1CCC(O)(c2ccccc2)CC1)N1CCN(Cc2cc(C(F)(F)F)cc(C(F)(F)F)c2)CC1c1ccc(Cl)c(Cl)c1 (centres undefined),32
8,O=C(CN1CCC(Cc2ccccc2)CC1)N1CCN(Cc2cc(C(F)(F)F)cc(C(F)(F)F)c2)CC1c1ccc(Cl)c(Cl)c1 (centres undefined),110
9,O=C(CNC1CCN(Cc2ccccc2)CC1)N1CCN(Cc2cc(C(F)(F)F)cc(C(F)(F)F)c2)CC1c1ccccc1 (centres undefined),17
10,O=C(CN1CCC(O)(c2ccccc2)CC1)N1CCN(Cc2cc(C(F)(F)F)cc(C(F)(F)F)c2)CC1c1ccccc1 (centres undefined),13
11,CN1CCN(C(=O)CNC2CCN(Cc3ccccc3)CC2)C(c2ccccc2)C1 (centres undefined),135
12,CC(=O)NC1(c2ccccc2)CCN(CC(=O)N2CCN(Cc3cc(C(F)(F)F)cc(C(F)(F)F)c3)CC2c2ccc(Cl)c(Cl)c2)CC1 (centres undefined),148
13,O=C(Cc1cc(C(F)(F)F)cc(C(F)(F)F)c1)N1CCN(C(=O)CNC2CCN(Cc3ccccc3)CC2)C(c2ccccc2)C1 (centres undefined),136

# The next lines start with the values.
row,Ki [nM],Compound
1,3.2,O=C(c1cc(Br)cc(Br)c1)N1CCN(C(=O)CNC2CCN(Cc3ccccc3)CC2)C(c2ccc(Cl)c(Cl)c2)C1 (centres undefined)
2,7.1,COc1cc(OC)cc(C(=O)N2CCN(C(=O)CNC3CCN(Cc4ccccc4)CC3)C(c3ccc(Cl)c(Cl)c3)C2)c1 (centres undefined)
3,143,Cc1cc(C)cc(C(=O)N2CCN(C(=O)CNC3CCN(C(=O)[C@H](N)c4ccccc4)CC3)[C@H](c3ccc(Cl)c(Cl)c3)C2)c1
4,92,Cc1cc(C)cc(C(=O)N2CCN(C(=O)CNC3CCN(Cc4ncc[nH]4)CC3)[C@H](c3ccc(Cl)c(Cl)c3)C2)c1
5,32,Cc1cc(C)cc(C(=O)N2CCN(C(=O)CNC3CCN(C(=O)[C@H](N)Cc4ccc(O)cc4)CC3)[C@H](c3ccc(Cl)c(Cl)c3)C2)c1
6,215,Cc1cc(C)cc(C(=O)N2CCN(C(=O)CNC3CCNCC3)[C@H](c3ccc(Cl)c(Cl)c3)C2)c1
7,15,CC(=O)Nc1ccc(CN2CCC(NCC(=O)N3CCN(C(=O)c4cc(C)cc(C)c4)C[C@H]3c3ccc(Cl)c(Cl)c3)CC2)cc1
8,70,Cc1cc(C)cc(C(=O)N2CCN(C(=O)CNC3CCN(C(=O)[C@H](N)Cc4c[nH]c5ccccc45)CC3)[C@H](c3ccc(Cl)c(Cl)c3)C2)c1
9,21,Cc1cc(C)cc(C(=O)N2CCN(C(=O)CNC3CCN(C(=O)[C@@H](N)Cc4ccccc4)CC3)[C@H](c3ccc(Cl)c(Cl)c3)C2)c1
10,35,Cc1cc(C)cc(C(=O)N2CCN(C(=O)CNC3CCN(Cc4cc[nH]c4)CC3)[C@H](c3ccc(Cl)c(Cl)c3)C2)c1
11,112,COc1cc(C(=O)N2CCN(C(=O)CNC3CCN(Cc4ccccc4)CC3)C(c3ccc(Cl)c(Cl)c3)C2)cc(OC)c1OC (centres undefined)
12,11,Cc1cc(C)cc(C(=O)N2CCN(C(=O)CNC3CCN(C(=O)[C@H](N)Cc4ccccc4)CC3)[C@H](c3ccc(Cl)c(Cl)c3)C2)c1
13,42,Cc1cc(C)cc(C(=O)N2CCN(C(=O)CNC3CCN(C(=O)[C@@H](N)c4ccccc4)CC3)[C@H](c3ccc(Cl)c(Cl)c3)C2)c1
14,52,CC(=O)Nc1nc(CN2CCC(NCC(=O)N3CCN(C(=O)c4cc(C)cc(C)c4)C[C@H]3c3ccc(Cl)c(Cl)c3)CC2)cs1
15,7.7,O=C(c1cc(Cl)cc(Cl)c1)N1CCN(C(=O)CNC2CCN(Cc3ccccc3)CC2)C(c2ccc(Cl)c(Cl)c2)C1 (centres undefined)
16,> 1000,O=C(c1cc(O)cc(O)c1)N1CCN(C(=O)CNC2CCN(Cc3ccccc3)CC2)C(c2ccc(Cl)c(Cl)c2)C1 (centres undefined)
17,23,O=C(c1cc(F)cc(F)c1)N1CCN(C(=O)CNC2CCN(Cc3ccccc3)CC2)C(c2ccc(Cl)c(Cl)c2)C1 (centres undefined)

# Target: T2, Substance-K receptor (Homo sapiens, UniProt P21452)
# T2 sequence (P21452 whole entry): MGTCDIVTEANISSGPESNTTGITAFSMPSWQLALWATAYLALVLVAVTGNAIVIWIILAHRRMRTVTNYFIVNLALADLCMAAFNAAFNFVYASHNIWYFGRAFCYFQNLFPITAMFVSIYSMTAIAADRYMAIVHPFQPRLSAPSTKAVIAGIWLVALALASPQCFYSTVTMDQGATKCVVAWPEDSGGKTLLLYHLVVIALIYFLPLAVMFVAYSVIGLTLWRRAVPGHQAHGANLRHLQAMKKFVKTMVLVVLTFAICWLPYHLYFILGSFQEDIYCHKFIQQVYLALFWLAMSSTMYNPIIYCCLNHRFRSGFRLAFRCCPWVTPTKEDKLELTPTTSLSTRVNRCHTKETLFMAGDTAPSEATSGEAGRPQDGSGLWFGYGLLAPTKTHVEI
# Experiment: Binding affinity in membrane preparations containing recombinant human Tachykinin receptor 2 in CHO cells by using [3H]NKA as the radioligand.
# Type: cell membranes
# Settings: not given
row,Compound,Ki [nM]
1,O=C(CN1CCN(Cc2ccccc2)CC1)N1CCN(Cc2cc(C(F)(F)F)cc(C(F)(F)F)c2)CC1c1ccc(Cl)c(Cl)c1 (centres undefined),> 1000
2,O=C(CNC1CCN(Cc2ccccc2)CC1)N1CCN(Cc2cc(C(F)(F)F)cc(C(F)(F)F)c2)CC1c1ccc(Cl)c(Cl)c1 (centres undefined),175
3,O=C(CN1CCC(Cc2ccccc2)CC1)N1CCN(Cc2cc(C(F)(F)F)cc(C(F)(F)F)c2)CC1c1ccccc1 (centres undefined),> 1000
4,CC(=O)NC1(c2ccccc2)CCN(CC(=O)N2CCN(Cc3cc(C(F)(F)F)cc(C(F)(F)F)c3)CC2c2ccccc2)CC1 (centres undefined),> 1000
5,COc1cc(CC(=O)N2CCN(C(=O)CNC3CCN(Cc4ccccc4)CC3)C(c3ccc(Cl)c(Cl)c3)C2)cc(OC)c1OC (centres undefined),> 1000
6,O=C(CN1CCN(Cc2ccccc2)CC1)N1CCN(Cc2cc(C(F)(F)F)cc(C(F)(F)F)c2)CC1c1ccccc1 (centres undefined),> 1000
7,O=C(CN1CCC(O)(c2ccccc2)CC1)N1CCN(Cc2cc(C(F)(F)F)cc(C(F)(F)F)c2)CC1c1ccc(Cl)c(Cl)c1 (centres undefined),> 1000
8,O=C(CN1CCC(Cc2ccccc2)CC1)N1CCN(Cc2cc(C(F)(F)F)cc(C(F)(F)F)c2)CC1c1ccc(Cl)c(Cl)c1 (centres undefined),> 1000
9,O=C(CNC1CCN(Cc2ccccc2)CC1)N1CCN(Cc2cc(C(F)(F)F)cc(C(F)(F)F)c2)CC1c1ccccc1 (centres undefined),300
10,O=C(CN1CCC(O)(c2ccccc2)CC1)N1CCN(Cc2cc(C(F)(F)F)cc(C(F)(F)F)c2)CC1c1ccccc1 (centres undefined),> 1000
11,CN1CCN(C(=O)CNC2CCN(Cc3ccccc3)CC2)C(c2ccccc2)C1 (centres undefined),> 1000
12,CC(=O)NC1(c2ccccc2)CCN(CC(=O)N2CCN(Cc3cc(C(F)(F)F)cc(C(F)(F)F)c3)CC2c2ccc(Cl)c(Cl)c2)CC1 (centres undefined),> 1000
13,O=C(Cc1cc(C(F)(F)F)cc(C(F)(F)F)c1)N1CCN(C(=O)CNC2CCN(Cc3ccccc3)CC2)C(c2ccccc2)C1 (centres undefined),> 1000

# More lines, now with the values ahead:
row,Ki [nM],Compound
1,14,O=C(c1cc(Br)cc(Br)c1)N1CCN(C(=O)CNC2CCN(Cc3ccccc3)CC2)C(c2ccc(Cl)c(Cl)c2)C1 (centres undefined)
2,27,COc1cc(OC)cc(C(=O)N2CCN(C(=O)CNC3CCN(Cc4ccccc4)CC3)C(c3ccc(Cl)c(Cl)c3)C2)c1 (centres undefined)
3,16,Cc1cc(C)cc(C(=O)N2CCN(C(=O)CNC3CCN(C(=O)[C@H](N)c4ccccc4)CC3)[C@H](c3ccc(Cl)c(Cl)c3)C2)c1
4,3,Cc1cc(C)cc(C(=O)N2CCN(C(=O)CNC3CCN(Cc4ncc[nH]4)CC3)[C@H](c3ccc(Cl)c(Cl)c3)C2)c1
5,7,Cc1cc(C)cc(C(=O)N2CCN(C(=O)CNC3CCN(C(=O)[C@H](N)Cc4ccc(O)cc4)CC3)[C@H](c3ccc(Cl)c(Cl)c3)C2)c1
6,20,Cc1cc(C)cc(C(=O)N2CCN(C(=O)CNC3CCNCC3)[C@H](c3ccc(Cl)c(Cl)c3)C2)c1
7,1.3,CC(=O)Nc1ccc(CN2CCC(NCC(=O)N3CCN(C(=O)c4cc(C)cc(C)c4)C[C@H]3c3ccc(Cl)c(Cl)c3)CC2)cc1
8,28,Cc1cc(C)cc(C(=O)N2CCN(C(=O)CNC3CCN(C(=O)[C@H](N)Cc4c[nH]c5ccccc45)CC3)[C@H](c3ccc(Cl)c(Cl)c3)C2)c1
9,3.2,Cc1cc(C)cc(C(=O)N2CCN(C(=O)CNC3CCN(C(=O)[C@@H](N)Cc4ccccc4)CC3)[C@H](c3ccc(Cl)c(Cl)c3)C2)c1
10,1.3,Cc1cc(C)cc(C(=O)N2CCN(C(=O)CNC3CCN(Cc4cc[nH]c4)CC3)[C@H](c3ccc(Cl)c(Cl)c3)C2)c1
11,124,COc1cc(C(=O)N2CCN(C(=O)CNC3CCN(Cc4ccccc4)CC3)C(c3ccc(Cl)c(Cl)c3)C2)cc(OC)c1OC (centres undefined)
12,1.1,Cc1cc(C)cc(C(=O)N2CCN(C(=O)CNC3CCN(C(=O)[C@H](N)Cc4ccccc4)CC3)[C@H](c3ccc(Cl)c(Cl)c3)C2)c1
13,1.1,Cc1cc(C)cc(C(=O)N2CCN(C(=O)CNC3CCN(C(=O)[C@@H](N)c4ccccc4)CC3)[C@H](c3ccc(Cl)c(Cl)c3)C2)c1
14,0.9,CC(=O)Nc1nc(CN2CCC(NCC(=O)N3CCN(C(=O)c4cc(C)cc(C)c4)C[C@H]3c3ccc(Cl)c(Cl)c3)CC2)cs1
15,14,O=C(c1cc(Cl)cc(Cl)c1)N1CCN(C(=O)CNC2CCN(Cc3ccccc3)CC2)C(c2ccc(Cl)c(Cl)c2)C1 (centres undefined)
16,> 1000,O=C(c1cc(O)cc(O)c1)N1CCN(C(=O)CNC2CCN(Cc3ccccc3)CC2)C(c2ccc(Cl)c(Cl)c2)C1 (centres undefined)
17,22,O=C(c1cc(F)cc(F)c1)N1CCN(C(=O)CNC2CCN(Cc3ccccc3)CC2)C(c2ccc(Cl)c(Cl)c2)C1 (centres undefined)
